Measurements: US20260262643A1, “HERBICIDAL BENZOXAZINES” (FMC CORPORATION, priority 2022, published 2026)

Columns and labels:
corn [1] = assay: Test C postemergence; format: in vivo, Zea mays; conditions: 10 days
Excerpt: (§1) Seeds of plant species selected from barnyardgrass (Echinochloa crusgalli), blackgrass (Alopecurus myosuroides), corn (Zea mays), foxtail, giant (giant foxtail, Setaria faberi), green foxtail (Setaria viridis), goosegrass (Eleusine indica), kochia (Bassia scoparia), oat, wild (wild oat, Avena fatua), pigweed, palmer (palmer amaranth, palmer pigweed, Amaranthus palmeri), Pigweed, Redroot (redroot pigweed, Amaranthus retroflexus), ragweed (common ragweed, Ambrosia artemisiifolia), ryegrass, Italian ([…] ryegrass, Lolium multiflorum), soybean (Glycine max), and wheat (Triticum aestivum) were planted into a blend of loam soil and sand and treated preemergence with a directed soil spray using test chemicals formulated in a non-phytotoxic solvent mixture which included a surfactant. At the same time, plants selected from these crops and weed species and also galium (catchweed bedstraw, Galium aparine) and horseweed (Erigeron canadensis) were planted in pots containing the same blend of loam soil and sand and treated with postemergence applications of test chemicals formulated in the same manner. Plants ranged in height from 2 to 10 cm and were in the one- to two-leaf stage for the postemergence treatment. Treated plants and untreated controls were maintained in a greenhouse for 10 days, after which time all treated plants were compared to untreated controls and visually evaluated for injury. Plant response ratings, summarized in Table C, are based on a 0 to 100 scale where 0 is no effect and 100 is complete control. A dash (-) response means no test result.

corn [2] = assay: Test C preemergence; format: in vivo, Zea mays; conditions: for Corn plant response rating: preemergence; for Plant response rating, Corn: Preemergence
Excerpt: as §1

oat, wild [3] = assay: Test C preemergence; format: in vivo, Avena fatua; conditions: for Oat, Wild plant response rating: 500 g ai/ha, preemergence, 0 to 100 scale (0 no effect, 100 complete control)
Excerpt: as §1

green foxtail [4] = assay: Test C postemergence; format: in vivo, Setaria viridis; conditions: 10 days
Method in brief: (§2)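 Test material, in non-phytotoxic solvent with surfactant, was sprayed on the soil directly after seeding (preemergence) or on young plants of 2–10 cm with one to two leaves (postemergence). Greenhouse, 10 days; 0–100 visual control scale.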

green foxtail [5] = assay: Test C preemergence; format: in vivo, Setaria viridis; conditions: for Foxtail, Green plant response rating: preemergence; for Plant response rating, Foxtail, Green: Preemergence
Method in brief: as §2

soybean [6] = assay: Test C postemergence; format: in vivo, Glycine max; conditions: 10 days
Excerpt: as §1

kochia [7] = assay: Test C preemergence; format: in vivo, Bassia scoparia; conditions: for Kochia plant response rating: preemergence; for Plant response rating, Kochia: Preemergence
Method in brief: as §2

pigweed, palmer [8] = assay: Test C preemergence; format: in vivo, Amaranthus palmeri; conditions: for Pigweed, Palmer plant response rating: preemergence; for Plant response rating, Pigweed, Palmer: Preemergence
Method in brief: as §2

ragweed [9] = assay: Test C postemergence; format: in vivo, Ambrosia artemisiifolia; conditions: 10 days
Method in brief: as §2

kochia [10] = assay: Test C postemergence; format: in vivo, Bassia scoparia; conditions: 10 days
Method in brief: as §2

blackgrass [11] = assay: Test C preemergence; format: in vivo, Alopecurus myosuroides; conditions: for Blackgrass plant response rating: preemergence; for Plant response rating, Blackgrass: Preemergence
Method in brief: as §2

barnyardgrass [12] = assay: Test C postemergence; format: in vivo, Echinochloa crusgalli; conditions: 10 days
Method in brief: as §2

ryegrass, Italian [13] = assay: Test C preemergence; format: in vivo, Lolium multiflorum; conditions: for Ryegrass, Italian plant response rating: preemergence; for Plant response rating, Ryegrass, Italian: Preemergence
Method in brief: as §2

blackgrass [14] = assay: Test C postemergence; format: in vivo, Alopecurus myosuroides; conditions: 10 days
Method in brief: as §2

soybean [15] = assay: Test C preemergence; format: in vivo, Glycine max; conditions: for Soybean plant response rating: preemergence; for Plant response rating, Soybean: Preemergence
Excerpt: as §1

horseweed = assay: Test C postemergence; format: in vivo, Erigeron canadensis; conditions: 10 days
Method in brief: as §2

ragweed [16] = assay: Test C preemergence; format: in vivo, Ambrosia artemisiifolia; conditions: for Ragweed plant response rating: preemergence; for Plant response rating, Ragweed: Preemergence
Method in brief: as §2

oat, wild [17] = assay: Test C postemergence; format: in vivo, Avena fatua; conditions: 10 days
Excerpt: as §1

barnyardgrass [18] = assay: Test C preemergence; format: in vivo, Echinochloa crusgalli; conditions: for Barnyardgrass plant response rating: preemergence; for Plant response rating, Barnyardgrass: Preemergence
Method in brief: as §2

ryegrass, Italian [19] = assay: Test C postemergence; format: in vivo, Lolium multiflorum; conditions: 10 days
Method in brief: as §2

wheat [20] = assay: Test C postemergence; format: in vivo, Triticum aestivum; conditions: 10 days
Excerpt: as §1

pigweed, palmer [21] = assay: Test C postemergence; format: in vivo, Amaranthus palmeri; conditions: 10 days
Method in brief: as §2

galium = assay: Test C postemergence; format: in vivo, Galium aparine; conditions: 10 days
Method in brief: as §2

wheat [22] = assay: Test C preemergence; format: in vivo, Triticum aestivum; conditions: for Wheat plant response rating: preemergence; for Plant response rating, Wheat: Preemergence
Excerpt: as §1

[23] = 500 g ai/ha, postemergence, 0 to 100 scale (0 no effect, 100 complete control)
[24] = Postemergence, 125 g ai/ha, 0 to 100 scale (0 no effect, 100 complete control)
[25] = 500 g ai/ha, 0 to 100 scale (0 no effect, 100 complete control)
[26] = 125 g ai/ha, 0 to 100 scale, 0 no effect, 100 complete control
[27] = 125 g ai/ha, postemergence, 0 to 100 scale, 0 no effect, 100 complete control
[28] = Postemergence, 500 g ai/ha, visual 0 to 100 scale (0 no effect, 100 complete control)
[29] = 500 g ai/ha, visual rating after 10 days, 0 to 100 scale (0 no effect, 100 complete control)
[30] = Test C, 125 g ai/ha, 0 to 100 scale (0 no effect, 100 complete control)

CC(C)c1ncn(-c2ccc(OS(=O)(=O)C(F)(F)F)c(C(=O)N3C[C@H](C)Oc4c(Cl)cccc43)c2)n1 [Compound 339]
0: Plant response rating, Corn (corn [1]; [23]) | Plant response rating, Corn (corn [1]; [24]) | Corn plant response rating (corn [2]; [25]) | Plant response rating, Corn (corn [2]; [26]) | Oat, Wild plant response rating (oat, wild [3]) | Plant response rating, Oat, Wild (oat, wild [3]; Preemergence, 125 g ai/ha, 0 to 100 scale, 0 no effect, 100 complete control) | Plant response rating, Foxtail, Green (green foxtail [4]; [24]) | Foxtail, Green plant response rating (green foxtail [5]; [25]) | Plant response rating, Foxtail, Green (green foxtail [5]; [26]) | Plant response rating, Kochia (kochia [7]; [26]) | Pigweed, Palmer plant response rating (pigweed, palmer [8]; [25]) | Plant response rating, Pigweed, Palmer (pigweed, palmer [8]; [26]) | Plant response rating, Ragweed (ragweed [9]; [24]) | Blackgrass plant response rating (blackgrass [11]; [25]) | Plant response rating, Blackgrass (blackgrass [11]; [26]) | Plant response rating, Blackgrass (blackgrass [14]; [23]) | Plant response rating, Blackgrass (blackgrass [14]; [24]) | Soybean plant response rating (soybean [15]; [25]) | Plant response rating, Soybean (soybean [15]; [26]) | Plant response rating, Horseweed (horseweed; [24]) | Ragweed plant response rating (ragweed [16]; [25]) | Plant response rating, Ragweed (ragweed [16]; [26]) | Plant response rating, Oat, Wild (oat, wild [17]; [23]) | Plant response rating, Oat, Wild (oat, wild [17]; [24]) | Barnyardgrass plant response rating (barnyardgrass [18]; [25]) | Plant response rating, Barnyardgrass (barnyardgrass [18]; [26]) | Plant response rating, Ryegrass, Italian (ryegrass, Italian [19]; [24]) | Plant response rating, Wheat (wheat [20]; [23]) | Plant response rating, Wheat (wheat [20]; [24]) | Wheat plant response rating (wheat [22]; [25]) | Plant response rating, Wheat (wheat [22]; [26])
70: Plant response rating, Pigweed, Palmer (pigweed, palmer [21]; [23])
10: Plant response rating, Foxtail, Green (green foxtail [4]; [23]) | Plant response rating, Ragweed (ragweed [9]; [23]) | Plant response rating, Barnyardgrass (barnyardgrass [12]; [23]) | Plant response rating, Barnyardgrass (barnyardgrass [12]; [24]) | Plant response rating, Horseweed (horseweed; [23])
80: Ryegrass, Italian plant response rating (ryegrass, Italian [13]; [25])
60: Plant response rating, Kochia (kochia [10]; [23]) | Plant response rating, Galium (galium; [24])
20: Plant response rating, Soybean (soybean [6]; [23]) | Plant response rating, Ryegrass, Italian (ryegrass, Italian [13]; [26]) | Plant response rating, Ryegrass, Italian (ryegrass, Italian [19]; [23])
50: Kochia plant response rating (kochia [7]; [25]) | Plant response rating, Pigweed, Palmer (pigweed, palmer [21]; [24]) | Plant response rating, Galium (galium; [23])
30: Plant response rating, Kochia (kochia [10]; [24])

CCc1ncn(-c2cc(OC)cc(C(=O)N3C[C@H](C)Oc4c(Cl)cccc43)c2)n1 [Compound 164]
90: Plant response rating, Corn (corn [1]; [28]) | Plant response rating, Ragweed (ragweed [9]; [28]) | Plant response rating, Kochia (kochia [10]; [28]) | Ryegrass, Italian plant response rating (ryegrass, Italian [13]; [30]) | Plant response rating, Blackgrass (blackgrass [14]; [28]) | Soybean plant response rating (soybean [15]; [30]) | Plant response rating, Ryegrass, Italian (ryegrass, Italian [19]; [28]) | Plant response rating, Pigweed, Palmer (pigweed, palmer [21]; [27])
50: Plant response rating, Foxtail, Green (green foxtail [4]; [27]) | Plant response rating, Ragweed (ragweed [9]; [27]) | Blackgrass plant response rating (blackgrass [11]; [30]) | Plant response rating, Barnyardgrass (barnyardgrass [12]; [28]) | Plant response rating, Horseweed (horseweed; [28]) | Plant response rating, Oat, Wild (oat, wild [17]; [28]) | Barnyardgrass plant response rating (barnyardgrass [18]; 125 g ai/ha, 0 to 100 scale (0 no effect, 100 complete control)) | Plant response rating, Ryegrass, Italian (ryegrass, Italian [19]; [27])
70: Plant response rating, Blackgrass (blackgrass [14]; [27]) | Ragweed plant response rating (ragweed [16]; [30])
80: Plant response rating, Foxtail, Green (green foxtail [4]; [28]) | Plant response rating, Kochia (kochia [10]; [27]) | Plant response rating, Blackgrass (blackgrass [11]; [29])
100: Plant response rating, Foxtail, Green (green foxtail [5]; [29]) | Foxtail, Green plant response rating (green foxtail [5]; [30]) | Plant response rating, Soybean (soybean [6]; [27]) | Plant response rating, Soybean (soybean [6]; [28]) | Plant response rating, Kochia (kochia [7]; [29]) | Plant response rating, Pigweed, Palmer (pigweed, palmer [8]; [29]) | Pigweed, Palmer plant response rating (pigweed, palmer [8]; [30]) | Plant response rating, Ryegrass, Italian (ryegrass, Italian [13]; [29]) | Plant response rating, Soybean (soybean [15]; [29]) | Plant response rating, Barnyardgrass (barnyardgrass [18]; [29]) | Plant response rating, Pigweed, Palmer (pigweed, palmer [21]; [28]) | Plant response rating, Galium (galium; [27]) | Plant response rating, Galium (galium; [28])
30: Plant response rating, Corn (corn [1]; [27]) | Plant response rating, Corn (corn [2]; [29]) | Corn plant response rating (corn [2]; [30]) | Plant response rating, Oat, Wild (oat, wild [17]; [27]) | Plant response rating, Wheat (wheat [20]; [27]) | Plant response rating, Wheat (wheat [20]; [28])
60: Plant response rating, Ragweed (ragweed [16]; [29]) | Plant response rating, Wheat (wheat [22]; [29])
20: Plant response rating, Horseweed (horseweed; [27]) | Wheat plant response rating (wheat [22]; [30])
40: Kochia plant response rating (kochia [7]; [30]) | Plant response rating, Barnyardgrass (barnyardgrass [12]; [27])

CCOC[C@H]1CN(C(=O)c2cc(-n3cnc(C(C)C)n3)cc3c2OCO3)c2cccc(Cl)c2O1 [40 0]
60: Plant response rating, Ragweed (ragweed [9]; [24])
100: Foxtail, Green plant response rating (green foxtail [5]; [25]) | Pigweed, Palmer plant response rating (pigweed, palmer [8]; [25]) | Soybean plant response rating (soybean [15]; [25]) | Barnyardgrass plant response rating (barnyardgrass [18]; [25]) | Plant response rating, Pigweed, Palmer (pigweed, palmer [21]; [24])
50: Blackgrass plant response rating (blackgrass [11]; [25])
40: Plant response rating, Blackgrass (blackgrass [14]; [24]) | Plant response rating, Horseweed (horseweed; [24]) | Wheat plant response rating (wheat [22]; [25])
70: Plant response rating, Kochia (kochia [10]; [24]) | Ragweed plant response rating (ragweed [16]; [25])
0: Corn plant response rating (corn [2]; [25]) | Plant response rating, Oat, Wild (oat, wild [17]; [24]) | Plant response rating, Ryegrass, Italian (ryegrass, Italian [19]; [24])
90: Kochia plant response rating (kochia [7]; [25]) | Ryegrass, Italian plant response rating (ryegrass, Italian [13]; [25])
20: Plant response rating, Foxtail, Green (green foxtail [4]; [24]) | Plant response rating, Soybean (soybean [6]; [24]) | Plant response rating, Wheat (wheat [20]; [24])
30: Plant response rating, Corn (corn [1]; [24]) | Oat, Wild plant response rating (oat, wild [3]) | Plant response rating, Barnyardgrass (barnyardgrass [12]; [24])
